Data as given in paper PMC12040169 (PLOS Biology, 2025).

assay: in vitro; conditions: human, hela cells, % viability

Row | SMILES | viability at 28.5 h, 10 µM
1 | Cc1sc(-c2cccs2)nc1OC(=O)c1cccc(C(F)(F)F)c1 [CBK067748] | 96.1%
2 | COC(=O)Cn1cnc2sc(C(=O)Nc3ccccc3OC)c(C)c2c1=O [CBK071808] | 109%
3 | Nc1c(-c2cccc(C(F)(F)F)c2)cnc2ncccc12 [CBK083710] | 105%
4 | N[C@@H]1CCCN(C(=O)C2CC2)[C@H]1c1ccccc1F [CBK281563] | 97%
5 | Cc1ccc(SC(C)C(=O)Nc2cc(Cl)ccc2O)cc1 (stereo not shown) [CBK268610] | 87.9%
6 | Cc1nc(N2CCCCC2)ncc1C(=O)NCc1nonc1C [CBK307243] | 87.7%
7 | O=C1CC[C@@H](NCc2cccc(O)c2)[C@H](c2cc(F)cc(F)c2)N1 [CBK282909] | 98%
8 | O=C(CCN1C(=O)c2ccccc2C1=O)N(CCO)Cc1ccccc1 [CBK265565] | 110%
9 | O=C(O)c1ccccc1NC1CC(=O)N(C2CCCCC2)C1 (stereo not shown) [CBK286556] | 91.3%
10 | COc1cc(CNc2ncc(-c3ccc(N4CCOCC4)cc3)n3ccnc23)cc(OC)c1OC [CBK091219] | 100%
11 | COc1ccc(S(=O)(=O)NC(=O)NCC2CC3C=CC2C3)cc1 (stereo not shown) [CBK022821] | 88.7%
12 | COc1ccccc1-c1ccc(Nc2ccccc2)nc1 [CBK036909] | 85.4%
13 | Cc1ccc2nc(NC(=O)C(C)(C)C)nc(O)c2c1 [CBK021975] | 97.7%
14 | Cc1cccc(-c2noc(CNC(=O)CSc3ccccc3)n2)c1 [CBK270209] | 98.3%
15 | COc1ccc(OCCN2CCC(C(=O)NC(c3ccccn3)c3ccccc3OC)CC2)cc1 (stereo not shown) [CBK147938] | 86.3%
16 | COc1cccc(C(NC(=O)C2COc3c(cccc3OC)C2)c2ccccc2)c1 (stereo not shown) [CBK285736] | 94.7%
17 | O=C(O)CC1C(=O)NCCN1Cc1cccc(C(F)(F)F)c1 (stereo not shown) [CBK269958] | 91.1%
18 | CCC(C)(C)c1nnc(NC(=O)COc2ccc(Cl)cc2Cl)s1 [CBK058435] | 103%
19 | COc1ccc(-c2cn(-c3ccc4c(c3)CCO4)nn2)cc1 [CBK113027] | 88.5%
20 | NNC(=O)CCc1ccccc1O [CBK261214] | 97.2%
21 | O=C(CCn1cnc2ccccc21)NNC(=O)Nc1cccc(C(F)(F)F)c1 [CBK269093] | 93.9%
22 | C#CCNC(=O)c1nn(-c2nc3ccccc3s2)c2ccccc12 [CBK048486] | 99.2%
23 | Cc1ccc(C(=O)NCCNS(=O)(=O)c2ccccc2)cc1 [CBK264145] | 88.8%
24 | CN1CCc2c(c(NCC3CCCO3)nc3[nH]nc(N)c23)C1 (stereo not shown) [CBK287955] | 103%
25 | CC(C)c1nccn1CCCn1cncc1-c1cnn(C)c1 [CBK281812] | 104%
26 | CC(=O)Nc1ccc(-c2nc3ccc(-c4ccc5nc(-c6ccc(NC(C)=O)cc6)oc(=O)c5c4)cc3c(=O)o2)cc1 [CBK261391] | 107%

Row | SMILES | viability at 28.5 h, 10 µM
27 | COc1ccc(C(=O)N2CCC3(CCN(C(=O)Cc4c[nH]cn4)C3)C2)cc1OC (stereo not shown) [CBK131768] | 107%
28 | CC(Oc1ccc(/C=C/[N+](=O)[O-])cc1)C(=O)O (stereo not shown) [CBK264042] | 99.9%
29 | CCN1CCc2cc(-c3cncn3CCCn3nc(C)cc3C)ccc21 [CBK281572] | 104%
30 | Cc1c(NC(=O)C2CN(S(=O)(=O)c3ccccc3)CCN2S(=O)(=O)c2ccccc2)c(=O)n(-c2ccccc2)n1C (stereo not shown) [CBK264138] | 98%
31 | Cc1cccc(NC(=S)N2CCN(Cc3ccc4c(c3)OCO4)CC2)c1C [CBK264919] | 82.7%
32 | CCc1cc(CNC(=O)C(c2ccccc2)N2CCC(C)CC2)on1 (stereo not shown) [CBK281592] | 92.4%
33 | COc1ccc(C2(CN3CCC(NC(=O)C4CC4)CC3)CC2)cc1 [CBK285358] | 101%
34 | CN(C)CCOC1OC(CO)C(O)C(O)C1O (stereo not shown) [CBK012476C] | 94.4%
35 | CCCn1nccc1S(=O)(=O)NCCN1CCCCC1CO (stereo not shown) [CBK307259] | 82%
36 | CCCn1c(SCC(=O)N2c3ccc(F)cc3CCC2C)nnc1-c1cccnc1 (stereo not shown) [CBK059187] | 94%
37 | C[C@@H](c1ccccc1)n1c(=O)[nH]c2ncc(-c3cccc(-c4ccccc4)c3)nc21 [CBK064192] | 88.8%
38 | O=C1c2ccccc2S(=O)(=O)N1CC(O)Cn1c2ccc(Br)cc2c2cc(Br)ccc21 (stereo not shown) [CBK262347] | 112%
39 | OC(CSc1ncnc2sc3c(c12)CCC3)Cn1cccn1 (stereo not shown) [CBK304149] | 72.3%
40 | CCOc1cccc(N2C(=O)c3cc(Br)ccc3NC2c2ccc(OC)c(OC)c2)c1 (stereo not shown) [CBK074502] | 88.4%
41 | O=[N+]([O-])c1ccc(N2CCN(Cc3c(O)ccc4ccccc34)CC2)cc1NCc1ccccc1 [CBK268408] | 105%
42 | CC(C)(C)c1nn(CC2CCCCC2)c(=N)s1 [CBK075042] | 96.2%
43 | Cc1nc2cc(-c3nccn3C)nn2c(N2CCN(c3ccc(O)cc3)CC2)c1C [CBK286427] | 92.8%
44 | O=C(CN(Cc1ccc(Cl)cc1Cl)S(=O)(=O)c1ccccc1)Nc1c(F)cccc1F [CBK265801] | 99.1%
45 | NC(Cc1ccc(Cl)cc1)C(=O)N(CCc1cc(C(F)(F)F)cc(C(F)(F)F)c1)c1cccc2ccccc12 (stereo not shown) [CBK008674T] | 92.5%
46 | Cc1ccc(Cn2nc(C)c(NC(=O)c3nc4ncccn4n3)c2C)cc1 [CBK268912] | 90.9%
47 | CCSC1CCC(N(C)CC(=O)NCc2ccco2)C1 (stereo not shown) [CBK304823] | 84.3%
48 | Cc1ccnn1CCC(=O)NC1(c2ccccc2F)CCCC1 [CBK283691] | 81.7%
49 | CC1CC(/N=C2/NCCS2)CC(C)(C)C1 (stereo not shown) [CBK020293] | 102%
50 | O=C1c2ccc(Oc3ccc4c(c3)C(=O)N(c3cccnc3)C4=O)cc2C(=O)N1c1cccnc1 [CBK262773] | 88.6%
51 | COCCn1c(=O)[nH]c2ncc(-c3ccsc3)nc21 [CBK064156] | 108%
52 | COc1cncc(-c2cnc3[nH]c(=O)n([C@H](CO)C(C)C)c3n2)c1 [CBK064977] | 107%

Row | SMILES | viability at 28.5 h, 10 µM
53 | N#CCC(=O)Nc1ccc(F)c(Cl)c1 [CBK085905] | 95.4%
54 | CN1C[C@@H](NC(=O)c2ccc3c(c2)OCO3)C[C@H]1c1nc(-c2ccccc2)no1 [CBK288876] | 108%
55 | O=C(O)CSCC(=O)N(Cc1ccccc1)c1nc(-c2ccccc2)c(-c2ccccc2)s1 [CBK296138] | 97.5%
56 | CCC12CN3CCN(CC(C3)/C1=N\O)C2 [CBK263022] | 85.9%
57 | CC1(C)CC(=O)Nc2ccccc2S1 [CBK025483] | 98.2%
58 | CC[C@H]1CN(C(=O)NC(C)C)CC[C@H]1CC(=O)Nc1nccs1 [CBK288774] | 109%
59 | COc1ccc2c3c1CCC(C)(C)C3COC2CCN1CCN(c2ccc(F)cc2)CC1 (stereo not shown) [CBK024047C] | 86.7%
60 | CCOc1ccc(-n2c(SC/C=C/c3ccccc3)nnc2-c2cccnc2)cc1 [CBK266222] | 106%
61 | O=C(O)CC1SC(Nc2cc(C(F)(F)F)cc(C(F)(F)F)c2)=NC1=O (stereo not shown) [CBK059095] | 89.8%
62 | CCN(CC)CCN(C(=O)NCCCSC)C(C)c1ccc(OC)c(OC)c1 (stereo not shown) [CBK158803] | 94.3%
63 | Cc1cc(CN(C)Cc2cn(C)c3cc(F)ccc23)n[nH]1 [CBK281710] | 89.6%
64 | CC(Nc1nc(N2CCNCC2)nc2ccccc12)c1ccccc1 (stereo not shown) [CBK266475] | 102%
65 | Cc1cc(C(=O)N(Cc2ccccc2)c2ccccc2)no1 [CBK268131] | 94.2%
66 | Cc1ccc2oc(-c3ccc(O)cc3)nc2c1 [CBK093878] | 96.2%
67 | CN(C(=O)COC(=O)c1cc(-c2ccco2)nc2ccccc12)C1(C#N)CCCCC1 [CBK295591] | 93.2%
68 | O=C(NCc1ccc(-c2csnn2)cc1)c1cccnc1 [CBK149309] | 87%
69 | OCc1cccc(-c2cncc(N3CCN(CCN4CCCC4)CC3)n2)c1 [CBK066136] | 99.8%
70 | COc1cccc(C2C(C(=O)c3ccc(Br)cc3)=C(O)C(=O)N2CCCN(C)C)c1 (stereo not shown) [CBK264921] | 84.5%
71 | CCc1nc2ccc(C(=O)N3CCN(c4ccccc4)CC3)cn2c1N(C)Cc1ccc(OC)cc1 [CBK145584] | 85.4%
72 | Cc1nc2c(C(=O)NCC(F)(F)F)cnn2c(C)c1Cc1cccc(F)c1 [CBK162117] | 112%
73 | N#CC(c1ccc(O)cc1)N1CCOCC1 (stereo not shown) [CBK261659] | 116%
74 | O=C(Nc1ccc2ccccc2c1)c1ccccc1N(Cc1ccccc1)S(=O)(=O)c1ccccc1 [CBK263751] | 91.5%
75 | CCOC(=O)N/N=C(/C)c1ccc(Br)s1 [CBK019480] | 93.5%
76 | O=C(NCc1ccc2c(c1)CCN2C(=O)c1ccncc1)c1cccc(F)c1 [CBK288586] | 102%
77 | O=C(c1cc(-c2ccccn2)n[nH]1)N1CCC(c2ccccc2)C1 (stereo not shown) [CBK281852] | 91.9%
78 | Cc1nnc(CN(CC2CCCO2)C2CCC(C)CC2)n1C (stereo not shown) [CBK305548] | 95.2%

same assay, conditions: human, hela cells, % viability, bulk resorufin, single well

Row | SMILES | viability at 28.5 h, 10 µM
79 | CCNC(=O)N1CCC2(CC1)OCc1cc(-c3ccc(Cl)cc3)ccc1O2 [CBK060737] | 90.1%
